# Reference: ChEMBL document CHEMBL3885881, “DrugMatrix”
# Organism: Rattus norvegicus
# Assay: DrugMatrix - Regimen: Daily Repeat
# Format: toxicity, organism-based, Sprague-Dawley
# Set-up: regimen Daily Repeat, gender Male, age 6-8 weeks
# Details: in vivo, ip, 1 mg/kg, route intraperitoneal, dose level High, vehicle 100 % SALINE; for ABSOLUTE BASOPHIL / ABSOLUTE EOSINOPHIL / ABSOLUTE LYMPHOCYTE / ABSOLUTE MONOCYTE / ABSOLUTE SEGMENTED NEUTROPHIL / BASOPHIL / EOSINOPHIL / ERYTHROCYTE COUNT / HEMATOCRIT / HEMOGLOBIN / LEUKOCYTE COUNT / LYMPHOCYTE / MEAN CORPUSCULAR HEMOGLOBIN / MEAN CORPUSCULAR HEMOGLOBIN CONCENTRATION / MEAN CORPUSCULAR VOLUME / MONOCYTE / NEUTROPHIL / NUCLEATED RED BLOOD CELLS / PLATELET COUNT: tissue Blood; for ALANINE AMINOTRANSFERASE / ALKALINE PHOSPHATASE / ASPARTATE AMINOTRANSFERASE / BLOOD UREA NITROGEN / CARBON DIOXIDE / CHLORIDE / CHOLESTEROL / CREATININE / GLUCOSE / LACTATE DEHYDROGENASE / LIPASE / PHOSPHORUS / POTASSIUM / SODIUM / TOTAL BILIRUBIN / TOTAL PROTEIN / URIC ACID: tissue Plasma
structure (smiles),measurement,setting,value
CC[C@H]1CN2CCc3cc(OC)c(OC)cc3[C@@H]2C[C@@H]1C[C@H]1NCCc2cc(OC)c(OC)cc21 [EMETINE],ABSOLUTE BASOPHIL,"72 h, time 3 day",0 CELLS/uL
same,ABSOLUTE EOSINOPHIL,"72 h, time 3 day",235.33 CELLS/uL
same,ABSOLUTE LYMPHOCYTE,"72 h, time 3 day",9173.33 CELLS/uL
same,ABSOLUTE MONOCYTE,"72 h, time 3 day",141.33 CELLS/uL
same,ABSOLUTE SEGMENTED NEUTROPHIL,"72 h, time 3 day",916.67 CELLS/uL
same,BASOPHIL,"72 h, time 3 day",0%
same,EOSINOPHIL,"72 h, time 3 day",2.33%
same,ERYTHROCYTE COUNT,"72 h, time 3 day",6.53 x10E6/uL
same,HEMATOCRIT,"72 h, time 3 day",38.67%
same,HEMOGLOBIN,"72 h, time 3 day",13.97 G/DL
same,LEUKOCYTE COUNT,"72 h, time 3 day",10.47 x10E3/uL
same,LYMPHOCYTE,"72 h, time 3 day",88%
same,MEAN CORPUSCULAR HEMOGLOBIN,"72 h, time 3 day",21.37 pg
same,MEAN CORPUSCULAR HEMOGLOBIN CONCENTRATION,"72 h, time 3 day",36.1 G/DL
same,MEAN CORPUSCULAR VOLUME,"72 h, time 3 day",59.2 fL
same,MONOCYTE,"72 h, time 3 day",1.33%
same,NEUTROPHIL,"72 h, time 3 day",8.33%
same,NUCLEATED RED BLOOD CELLS,"72 h, time 3 day",0 /100WBC
same,PLATELET COUNT,"72 h, time 3 day",1026.33 x10E3/uL
same,ALANINE AMINOTRANSFERASE,"72 h, time 3 day",66.33 u/L
same,ALKALINE PHOSPHATASE,"72 h, time 3 day",365 u/L
same,ASPARTATE AMINOTRANSFERASE,"72 h, time 3 day",82.33 u/L
same,BLOOD UREA NITROGEN,"72 h, time 3 day",17.67 mg/dL
same,CARBON DIOXIDE,"72 h, time 3 day",34.67 mmol/L
same,CHLORIDE,"72 h, time 3 day",100.33 MEQ/L
same,CHOLESTEROL,"72 h, time 3 day",63 mg/dL
same,CREATININE,"72 h, time 3 day",0.22 mg/dL
same,GLUCOSE,"72 h, time 3 day",180.33 mg/dL
same,LACTATE DEHYDROGENASE,"72 h, time 3 day",120.33 u/L
same,LIPASE,"72 h, time 3 day",9 u/L
same,PHOSPHORUS,"72 h, time 3 day",11.83 mg/dL
same,POTASSIUM,"72 h, time 3 day",6.48 MEQ/L
same,SODIUM,"72 h, time 3 day",146.33 MEQ/L
same,TOTAL BILIRUBIN,"72 h, time 3 day",0.2 mg/dL
same,TOTAL PROTEIN,"72 h, time 3 day",6.27 G/DL
same,URIC ACID,"72 h, time 3 day",1.73 mg/dL
same,ABSOLUTE BASOPHIL,"120 h, time 5 day",0 CELLS/uL
same,ABSOLUTE EOSINOPHIL,"120 h, time 5 day",107.33 CELLS/uL
same,ABSOLUTE LYMPHOCYTE,"120 h, time 5 day",9674.67 CELLS/uL
same,ABSOLUTE MONOCYTE,"120 h, time 5 day",240.33 CELLS/uL
same,ABSOLUTE SEGMENTED NEUTROPHIL,"120 h, time 5 day",1811 CELLS/uL
same,BASOPHIL,"120 h, time 5 day",0%
same,EOSINOPHIL,"120 h, time 5 day",1%
same,ERYTHROCYTE COUNT,"120 h, time 5 day",6.23 x10E6/uL
same,HEMATOCRIT,"120 h, time 5 day",37.3%
same,HEMOGLOBIN,"120 h, time 5 day",13.67 G/DL
same,LEUKOCYTE COUNT,"120 h, time 5 day",11.83 x10E3/uL
same,LYMPHOCYTE,"120 h, time 5 day",82.67%
same,MEAN CORPUSCULAR HEMOGLOBIN,"120 h, time 5 day",21.93 pg
same,MEAN CORPUSCULAR HEMOGLOBIN CONCENTRATION,"120 h, time 5 day",36.67 G/DL
same,MEAN CORPUSCULAR VOLUME,"120 h, time 5 day",59.8 fL
same,MONOCYTE,"120 h, time 5 day",2%
same,NEUTROPHIL,"120 h, time 5 day",14.33%
same,NUCLEATED RED BLOOD CELLS,"120 h, time 5 day",0 /100WBC
same,PLATELET COUNT,"120 h, time 5 day",1167.33 x10E3/uL
same,ALANINE AMINOTRANSFERASE,"120 h, time 5 day",57 u/L
same,ALKALINE PHOSPHATASE,"120 h, time 5 day",325 u/L
same,ASPARTATE AMINOTRANSFERASE,"120 h, time 5 day",102.33 u/L
same,BLOOD UREA NITROGEN,"120 h, time 5 day",16.67 mg/dL
same,CARBON DIOXIDE,"120 h, time 5 day",28.67 mmol/L
same,CHLORIDE,"120 h, time 5 day",100.67 MEQ/L
same,CHOLESTEROL,"120 h, time 5 day",52.67 mg/dL
same,CREATININE,"120 h, time 5 day",0.23 mg/dL
same,GLUCOSE,"120 h, time 5 day",272.67 mg/dL
same,LACTATE DEHYDROGENASE,"120 h, time 5 day",312 u/L
same,LIPASE,"120 h, time 5 day",8.67 u/L
same,PHOSPHORUS,"120 h, time 5 day",14.97 mg/dL
same,POTASSIUM,"120 h, time 5 day",5.87 MEQ/L
same,SODIUM,"120 h, time 5 day",146.87 MEQ/L
same,TOTAL BILIRUBIN,"120 h, time 5 day",0.1 mg/dL
same,TOTAL PROTEIN,"120 h, time 5 day",5.9 G/DL
same,URIC ACID,"120 h, time 5 day",2.8 mg/dL
same,ABSOLUTE BASOPHIL,"[…], time 14 day",0 CELLS/uL
same,ABSOLUTE EOSINOPHIL,"[…], time 14 day",124.6 CELLS/uL
same,ABSOLUTE LYMPHOCYTE,"[…], time 14 day",16602.4 CELLS/uL
same,ABSOLUTE MONOCYTE,"[…], time 14 day",725.4 CELLS/uL
same,ABSOLUTE SEGMENTED NEUTROPHIL,"[…], time 14 day",1987.6 CELLS/uL
same,BASOPHIL,"[…], time 14 day",0%
same,EOSINOPHIL,"[…], time 14 day",0.6%
same,ERYTHROCYTE COUNT,"[…], time 14 day",6.66 x10E6/uL
same,HEMATOCRIT,"[…], time 14 day",38.76%
same,HEMOGLOBIN,"[…], time 14 day",14.18 G/DL
same,LEUKOCYTE COUNT,"[…], time 14 day",19.44 x10E3/uL
same,LYMPHOCYTE,"[…], time 14 day",85.6%
same,MEAN CORPUSCULAR HEMOGLOBIN,"[…], time 14 day",21.32 pg
same,MEAN CORPUSCULAR HEMOGLOBIN CONCENTRATION,"[…], time 14 day",36.58 G/DL
same,MEAN CORPUSCULAR VOLUME,"[…], time 14 day",58.24 fL
same,MONOCYTE,"[…], time 14 day",3.6%
same,NEUTROPHIL,"[…], time 14 day",10.2%
same,NUCLEATED RED BLOOD CELLS,"[…], time 14 day",0 /100WBC
same,PLATELET COUNT,"[…], time 14 day",1306.2 x10E3/uL
same,ALANINE AMINOTRANSFERASE,"[…], time 14 day",45.2 u/L
same,ALKALINE PHOSPHATASE,"[…], time 14 day",253.2 u/L
same,ASPARTATE AMINOTRANSFERASE,"[…], time 14 day",99 u/L
same,BLOOD UREA NITROGEN,"[…], time 14 day",13.6 mg/dL
same,CARBON DIOXIDE,"[…], time 14 day",31.8 mmol/L
same,CHLORIDE,"[…], time 14 day",101 MEQ/L
same,CHOLESTEROL,"[…], time 14 day",62.2 mg/dL
same,CREATININE,"[…], time 14 day",0.14 mg/dL
same,GLUCOSE,"[…], time 14 day",143.2 mg/dL
same,LACTATE DEHYDROGENASE,"[…], time 14 day",172.6 u/L
same,LIPASE,"[…], time 14 day",8.8 u/L
same,PHOSPHORUS,"[…], time 14 day",11.54 mg/dL
same,POTASSIUM,"[…], time 14 day",6.76 MEQ/L
same,SODIUM,"[…], time 14 day",145.5 MEQ/L
same,TOTAL BILIRUBIN,"[…], time 14 day",0.2 mg/dL
same,TOTAL PROTEIN,"[…], time 14 day",5.82 G/DL
same,URIC ACID,"[…], time 14 day",1.66 mg/dL
